Entries after “also recorded” stand apart in the source; their conditions may differ.
Experiments:
[1] = test system: ASA2 expressing transgenic tobacco seedlings; test: Seedling growth inhibition test, ASA2 expressing transgenic tobacco; format: in vivo, Nicotiana tabacum; settings: 75 μm analog; for germination and growth of T2 seed of homozygous ASA2 lines: four lines, pC2ASA2 transformants; for transgenic seedling growth: line ASTIV
Description: The concentrations listed in Table 1 are for illustrative purposes and should not be construed as a limited range. Seedling growth inhibition was studied by placing a total of 45 surface-sterilized seeds of either the wild-type (WT) tobacco (Nicotiana tabacum cv. Petit Havana SR1) or the ASA2 expressing transgenic plants previously obtained (Zhang et al., 2001), on Murashige-Skoog medium supplemented with 3% sucrose, vitamins, 0.8% agar and various concentrations of the different analogs (see Table 1). […] The analogs listed in Table 1 were obtained from Sigma-Aldrich (St. Louis, Mo.) or Acros Organics (Morris Plains, N.J.).
(§1) A vector pC2ASA2 was used, which contains a full length 2,144-bp AS feedback-insensitive α-subunit (ASA2) cDNA, encoding 616 amino acids including a putative transit peptide and 204 bp of 3′non-coding region driven by the CaMV35S promoter. pC2ASA2 was electroporated into Agrobacterium tumefaciens strain EHA105 and then used for the leaf disc transformation. Shoots of tobacco (Nicotiana tabacum L. cv. Xanthi) plants were maintained as in vitro stock cultures in Magenta boxes containing MS basal medium (Murashige and Skoog 1962) with 2 g 1-1 Gelrite® and leaves from these shoots were sources of explants for transformation. The growth conditions were 16-h photoperiod with a temperature of 28° C., florescent lamps providing a photosynthetic photon flux density of 150 μmol m-2 s-1 at the shelf surface. For segregation tests or for seedling growth inhibition tests on different analogs, 50 seeds/plate were surface sterilized with a solution of distilled water-Clorox (80:20; 1.25% Na hypochlorite) for 20 min containing a few drops of Tween 20™ and then rinsed with sterile water before spreading them on MS basal medium plates containing the appropriate selective agent.
To test for the segregation of the transgene in the T1 generation, seeds of the transgenic lines were germinated on medium containing either 75 4MI or 75 μm 7MT for 21 days. The ratios of resistant/sensitive seedlings were for most of the lines close to the expected 3:1 ratio confirming a single nuclear site of insertion for the 15 lines tested.

[2] = test system: tobacco leaf discs transformed with CaMV35S-ASA2; test: Selection of A. tumefaciens (pC2ASA2) transformed tobacco leaf discs on analog; format: cell-based, Nicotiana tabacum L. cv. Xanthi; settings: for resistant plants obtained (total of two experiments): 300 μm on TRM, 150 leaf discs for 4MI, 135 leaf discs for 7MT; for optimal concentration for selection of putative transformants: on TRM
Description: as §1
Leaf discs (6 mm each in diameter) from 20 leaves of WT tobacco were used for each transformation experiment. After 6 weeks of selection on TRM with either 300 μM 4MI or 300 μM 7MT and 500 mg/l timentin to eliminate A. tumefaciens, the shoots regenerating from the callus were isolated and transferred to the Rooting Medium with analogs to initiate root growth. After root induction, the plantlets were transferred into soil and grown to maturity in a greenhouse. The T1 seeds were plated on either 4MI or 7MT for segregation tests and to obtain homozygous lines.
The ASA2 gene driven by the CaMV 35S promoter was transferred into tobacco leaf discs via the A. tumefaciens-mediated transformation method. Putative transformants were selected on TRM using the optimal concentration (300 μm) of 4MI and 7MT for selection. 31 resistant plants were obtained in two different experiments: 21 one on 4MI from a total of 150 leaf discs (10 resistant plants from 80 leaf discs in experiment 1 and 11 resistant plants from 70 leaf discs in experiment 2) and 10 on 7MT from a total of 135 leaf discs (6 resistant plants from 70 leaf discs in experiment 1 and 4 resistant plants from 65 leaf discs in experiment 2). […] GUS activity was assessed histochemically in PCR-GUS positive lines using leaf pieces confirming the results obtained with the molecular screening. When the transgenic plants were tested for ASA2 gene expression by RT-PCR an 815-bp fragment was amplified from total RNA extracted from young leaves from 15 transgenic lines while no fragment was detected in the WT. […]

[3] = test system: tobacco shoot producing leaf discs; test: Discrimination between wild type and ASA2 expressing tobacco shoot producing leaf discs; format: cell-based
Experimental: Various concentrations of the different analogs were tested on maize, soy bean, and tobacco that includes growth inhibition test of germination, leaf callus formation test, and other growth inhibition tests (FIGS. 15-38).
(§2) Leaf callus/shoot formation was studied on Tobacco Regeneration Medium that was MS basal medium with 88 μM 6-benzyladenine (BA) and 0.5 μM naphthalene acetic acid (NAA) and various concentrations of different Trp and indole analogs using a total of 30 leaf discs (6 mm each in diameter) from either the untransformed wild type (WT) tobacco or the ASA2 expressing transgenic line transformed with pAST-IV vector (line ASTIV) at 28° C. under fluorescent light as described above. Callus formation and shoot production was visually evaluated after 2, 4 and 6 weeks. Seedling growth inhibition was studied as described herein.

[4] = test system: Arabidopsis germinating seedlings; test: Discrimination between wild type and ASA2 expressing Arabidopsis germinating seedlings; format: in vivo; settings: Arabidopsis seeds
[5] = test system: tobacco leaf discs bombarded with vector pAST-IV; test: Selection of plastid transformants (pAST-IV) on analog; format: cell-based, Nicotiana tabacum cv. Havana; settings: 60 leaf discs bombarded, 6-8 weeks selection
Experimental: DNA preparation, precipitation onto gold particles, and bombardment were performed as described previously (Svab & Maliga P, 1993) using 0.6 μm gold particles (Bio-Rad, Hercules, Calif.) as micro projectiles. Any suitable particle bombardment procedure can be used. Briefly, the plasmid containing the marker gene and a gene of interest are coated onto gold or tungsten microparticles. The coated particles are air dried and loaded on to a particle gun for particle bombardment into the desired tissue. Nicotiana tabacum cv. Havana was used in the experiments. Green calli and shoots resistant to either 7-MT or 4-MI were obtained after 6-8 wks of selection on RMOP medium (Svab et al., 1990) and subjected to three additional rounds of selection for the homoplastomic condition.
Six to eight weeks after bombardment, 28 independent resistant shoots/calli were recovered from 60 leaf discs bombarded with vector pAST-IV. The 28 lines selected directly for 4MI or 7MT resistance were tested by the PCR reaction using either primers specific for ASA2 gene (L40 and L 39) or a primer specific to the ASA2 coding region (L40) and a primer that is located in the plastid genome outside the flanking region of the vector (L29). […] A 815 bp (L40-L39) and a 2.1 kb (L40-L29) fragments were reproducibly detected in 5 transgenic of the 28 in dependent lines (3 from 7MT and 2 from 4 MI). […]

[6] = test system: ASA2 expressing transgenic tobacco (line ASTIV); test: Leaf callus formation and growth of ASA2 expressing (5MT resistant) tobacco plants; format: cell-based, Nicotiana tabacum; settings: 300 μm analog; for callus and shoot formation of ASA2 expressing leaf discs: after four/six weeks
Description: (§3) The concentrations listed in Table 1 are for illustrative purposes and should not be construed as a limited range. Seedling growth inhibition was studied by placing a total of 45 surface-sterilized seeds of either the wild-type (WT) tobacco (Nicotiana tabacum cv. Petit Havana SR1) or the ASA2 expressing transgenic plants previously obtained (Zhang et al., 2001), on Murashige-Skoog medium supplemented with 3% sucrose, vitamins, 0.8% agar and various concentrations of the different analogs (see Table 1). Seed germination and root formation were measured after 2 weeks, at 28° C. under fluorescent light. The analogs listed in Table 1 were obtained from Sigma-Aldrich (St. Louis, Mo.) or Acros Organics (Morris Plains, N.J.).
(§4) Leaf callus formation was studied on the nutrient medium described herein using a total of 30 leaf discs at 28° C. under fluorescent light. After 2 weeks, callus formation was measured and after 4 weeks shoot production was recorded.
as §2

[7] = test system: wild-type (WT) tobacco leaf discs; test: Leaf callus/shoot formation inhibition, wild-type tobacco leaf discs; format: cell-based, Nicotiana tabacum; settings: for effectiveness as selection agent among the analogs tested: 9 Trp analogs and 7 indole analogs tested; for callus production of the wild-type / shoot formation of WT leaf discs: 300 μm analog
Experimental: as §4, §2

[8] = test system: wild-type (WT) tobacco seedlings; test: Seedling growth inhibition test, wild-type tobacco; format: in vivo, Nicotiana tabacum; settings: for germination of WT and ASTIV seeds on analog containing medium / WT seedling growth: 75 μm analog; for WT seedling growth: after two weeks
Description: as §3, §1

[9] = test system: AS α subunit of WT tobacco; test: AS α subunit activity, inhibition by Trp, wild type (100 mM NH4Cl as amino donor); format: biochemical, Nicotiana tabacum; settings: 10 μm Trp, Example 6
Experimental: (§5) Approximately 2 g of leaves was homogenized with 1.5 volume of ice-cold extraction buffer as described in Bernasconi et al., (1994). The homogenate was centrifuged at 30,000 g at 4° C. for 10 min. The supernatant was desalted using a Econo-Pac 10 DG column (Bio-Rad, Hercules, Calif.). Protein concentration was determined using a protein dye-binding assay kit (Bio-Rad, Hercules, Calif.). The supernatant was combined with two volumes of assay buffer as described previously (Bernasconi et al., 1994) but without NH4Cl. AS enzyme activity was measured as the conversion rate of chorismate to anthranilate as described previously (Song et al., 1998). Either 100 mM NH4Cl or 10 mM glutamine was added to the assay mixture to determine α-subunit activity or AS holoenzyme activity respectively and Trp at different concentrations. Duplicate extracts of each line were analyzed.

[10] = test system: AS holoenzyme of ASA2 transgenic tobacco lines; test: AS holoenzyme activity, inhibition by Trp, ASA2 transgenic lines (10 mM Gln); format: biochemical, Nicotiana tabacum; settings: 300 μM Trp, pC2ASA2 lines
Experimental: as §5

[11] = test system: anthranilate synthase (AS) holoenzyme of WT tobacco; test: AS holoenzyme activity, inhibition by Trp, wild type (10 mM Gln as amino donor); format: biochemical, Nicotiana tabacum
Experimental: as §5

[12] = test system: AS α subunit (feedback insensitive ASA2) of transgenic tobacco lines; test: AS α subunit activity, inhibition by Trp, ASA2 transgenic lines (100 mM NH4Cl); format: biochemical, Nicotiana tabacum; settings: 300 μM Trp, pC2ASA2 lines
Experimental: as §5

Row | Compound | germination and growth of T2 seed of homozygous ASA2 lines [1] | transgenic seedling growth [1] | transgenic seedling development after six weeks [1] | resistant plants obtained (total of two experiments) [2] | optimal concentration for selection of putative transformants [2] [μm] | concentration for discriminating between wild type and ASA2 expressing tobacco shoot producing leaf discs [3] | PCR-confirmed transgenic lines among 28 independent resistant lines [5] | growth of the ASA2 expressing (5-MT resistant) plants [6] | callus and shoot formation of ASA2 expressing leaf discs [6] | effectiveness as selection agent among the analogs tested [7] | callus production of the wild-type [7] | shoot formation of WT leaf discs [7] | germination of WT and ASTIV seeds on analog containing medium [8] | WT seedling growth [8] | growth of the wild-type seedlings/roots ([8]; 300 μm analog) | further results
1 | Cc1cccc2c(CC(N)C(=O)O)c[nH]c12 (racemic) [7MT, 7-methyl-DL-tryptophan] | all 100 seeds germinated and grew normally | grew well | growing with normal true leaf development | 10 | 300 | 7MT 400 μM | 3 | not affected | formed callus and produced shoots | most effective | greater inhibition; also recorded: inhibited | little shoot formation | germinate almost equally | started to bleach, ceased to grow and eventually died | completely inhibited | concentration for discriminating between wild type and ASA2 expressing Arabidopsis germinating seedlings [4]: 7MT 300 μM; effectiveness as selection agent among the analogs tested ([7]; listed as 7-MT): enhanced selection properties
2 | N[C@@H](Cc1c[nH]c2ccccc12)C(=O)O [Trp, tryptophan] |  |  |  |  |  |  |  |  |  |  |  |  |  |  |  | WT AS α subunit activity [9]: almost completely inhibited; holoenzyme activity retained by line #6 and line #7 [10]: about 40%; WT relative holoenzyme activity ([11]; 300 μM Trp, Example 9): almost completely inhibited; WT AS holoenzyme activity ([11]; 10 μm Trp, Example 6): almost completely inhibited; α-subunit activity retained by line #6 and line #7 [12]: about 40%
3 | Cc1cccc2[nH]ccc12 [4MI, 4-Methylindole] | all 100 seeds germinated and grew normally | grew well | growing with normal true leaf development | 21 | 300 | 4MI 300 μM | 2 | not affected | formed callus and produced shoots | most effective | greater inhibition; also recorded: inhibited | little shoot formation | germinate almost equally | started to bleach, ceased to grow and eventually died | completely inhibited | effectiveness as selection agent among the analogs tested ([7]; listed as 4-MI): enhanced selection properties; wild-type plant germination ([8]; 300 μm analog): inhibited

Source: patent US7847152B2, “Use of tryptophan indole and anthranilate analogs as plant transformation selection agents” (The Board of Trustees of the University of Illinois, priority 2006, dated 2010)
